Reference: patent US20230067910A1, “NOVEL COMPOUNDS FOR THE DIAGNOSIS, TREATMENT AND PREVENTION OF DISEASES ASSOCIATED WITH THE AGGREGATION OF ALPHA-SYNUCLEIN” (MODAG GMBH, priority 2019, published 2023)
“And” between values parts separate entries of the source, which are not always exact repeats. Equal values may be shown once. Read-outs that look alike come from different tables or passages of the source.

Assays:
[1] = target: T1, alpha-synuclein (sonicated fibrils) (Homo sapiens, UniProt P37840); test: Modified competition binding assay, protocol 3b, reference ligand [3H]-compound 2; conditions: Table 5, reference ligand [3H]-compound 2 (1 nM)
T1 construct: made in house; host or cells: E. coli
Method in brief: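 Sonicated recombinant human αSYN fibrils (15 nM/well) incubated with 1 nM [3H]-compound 2 and serially diluted unlabeled competitor in 30 mM Tris-HCl, 10% ethanol, 0.05% Tween20, pH 7.4, 4.5 h at RT. Filtration readout; IC50 by non-linear regression, Ki calculated using KD 0.2 nM.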

[2] = target: T2, aggregated alpha-synuclein (Homo sapiens, UniProt P37840); test: Modified saturation binding assay, protocol 2b, alpha-synuclein fibrils; conditions: saturation assay protocol 2b, sonicated fibrils 15 nM/well
T2 construct: made in house; host or cells: E. coli
Procedure: Alpha-synuclein and tau46 were purified from E. coli according to established protocols (Nuscher B, et al., J. Biol. Chem., 2004; 279(21):21966-75), Aβ1-42 was obtained from rPeptide, Watkinsville, Ga., USA. Fibrils were prepared by aggregation of recombinant protein via constant agitation. In detail, 70 μM of alpha-synuclein mixed with 100 mM NaCl in 50 mM Tris, pH 7.0+0.02% NaN3 were incubated at 1,400 rpm, 37° C. for 96 h. 10 μM of tau46 were incubated with 0.03 mg/ml heparin in 50 mM Tris, pH=7.0 at 1,000 rpm, 37° C. for 72 h. […]
For saturation binding assays, a fixed concentration of sonicated human recombinant αSYN (15 nM/well) or tau46 (250 nM/well) or Aβ1-42 (1 μM/well) fibrils diluted in phosphate buffered saline (PBS) were incubated in low binding plates (96 well micro test plate, Ratiolab GmbH, Dreieich, Germany) with [H]-compound 1 or [PH]-compound 2 at increasing concentrations (from 0.05 nM to 12 nM/24 nM) in 30 mM Tris HCl, 10% ethanol, 0.05% Tween20, pH 7.4 (hereafter referred to as incubation buffer) in a total volume of 200 μL/well. Non-specific binding of the radiotracer was determined by coincubation with 400 nM non-labeled compound 1 or compound 2. The optimal fibril concentrations were determined using a concentration determination assay. […]

[3] = target: T3, alpha-synuclein (fibrils) (Homo sapiens, UniProt P37840); test: Competition binding assay, protocol 3a, reference ligand [3H]-compound 1, alpha-synuclein fibrils; conditions: reference ligand [3H]-compound 1 (1 nM)
T3 construct: made in house; host or cells: E. coli
Procedure: Alpha-synuclein and tau46 were purified from E. coli according to established protocols (Nuscher B, et al., J. Biol. Chem., 2004; 279(21):21966-75), Aβ1-42 was obtained from rPeptide, Watkinsville, Ga., USA. Fibrils were prepared by aggregation of recombinant protein via constant agitation. In detail, 70 μM of alpha-synuclein mixed with 100 mM NaCl in 50 mM Tris, pH 7.0+0.02% NaN3 were incubated at 1,400 rpm, 37° C. for 96 h. 10 μM of tau46 were incubated with 0.03 mg/ml heparin in 50 mM Tris, pH=7.0 at 1,000 rpm, 37° C. for 72 h. Aβ1-42 was solved in 20 mM NaPi, pH=8.0+0.2 mM EDTA+0.02% NaN3 (Deeg A A, et al., Biochim. Biophys. Acta, 2015; 1850(9): 1884-90; Goedert M, et al. Nature, 1996; 383(6600): 550-3).
A fixed concentration of sonicated human recombinant αSYN (200 nM/well) or tau46 (208 nM/well) fibrils diluted in phosphate buffered saline (PBS) were incubated in low binding plates (96 well micro test plate, Ratiolab GmbH, Dreieich, Germany) together with 1 nM [^3H]-compound 1 and 1:4 serial dilutions of the cold compound of interest starting from 1 μM diluted in 50 mM Tris-base, 10% EtOH, 0.05% Tween20, pH 7.4. For the calculation of Ki values the KD value of compound 1 toward sonicated human recombinant αSYN fibrils was set to 3 nM.
Assay plates were incubated under agitation at 37° C. for 2 h covered by plastic foil (Resealable tape, PerkinElmer, Waltham, Mass., USA). Prior to harvesting, a filter (Printed filtermat B, PerkinElmer, Waltham, Mass., USA) was incubated with 5 mg/mL polyethylenimine (PEI, Poly(ethyleneimine) solution, Sigma Aldrich Chemie GmbH, Taufkirchen, Germany) at 4° C. for 30 min. After incubation, bound and free ligands were separated by vacuum filtration using a harvester (Filtermate harvester, PerkinElmer, Waltham, Mass., USA). The filter was washed three times with buffer cooled to 4° C. and subsequently dried in the microwave for 2 min at medium power. The filter was sealed in a plastic bag (Sample bag for MicroBeta®, PerkinElmer, Waltham, Mass., USA) together with added scintillator (BETAPLATE SCINT, PerkinElmer, Waltham, Mass., USA). Accumulation of tritium was counted in a liquid scintillation counter (Wallac MicroBeta® TriLux, 1450 LSC & Luminescence Counter, PerkinElmer, Waltham, Mass., USA) immediately. Radioactivity was plotted against the increasing tritium-labeled compound or cold compound concentrations. Data points were fitted using nonlinear regression analysis in GraphPad Prism (GraphPad Software, Inc., Version 7.03, La Jolla, Calif., USA).
The fibril competition assay provides Ki values. Ki is a quantitative measure that represents the concentration of the non-radioactive tested compound (competitor ligand) required to replace 50% of a reference compound, in this case [H]-compound 1 (1 nM) or [H]-compound 2 (1 nM), which is bound to the target structures (1 nM), in our case recombinant alpha-synuclein and tau46 fibrils. This assay is suitable for a screening of non-radioactive ligands.

[4] = Experiment B, read-out: Ki (nM) alpha-synuclein (sonicated fibrils)

Structure (SMILES)	Ki [1] [nM]	Kd [2] [nM]	Ki [3, 4] [nM]	Ki ([3]; Experiment A, read-out: Ki (nM) alpha-synuclein (fibrils))
CN(C)c1ccc(-c2cc(-c3ccnc(Br)c3)[nH]n2)cc1 [Compound 1, 4-[3-(4-dimethylamino-phenyl)-1H-pyrazol-5-yl]-2-bromopyridine]	0.1	0.6		
CNc1ccc(-c2cc(-c3ccnc(Br)c3)[nH]n2)cc1 [Compound 2, 4-[5-(2-bromopyridin-4-yl)-1H-pyrazol-3-yl]-N-methylaniline]		0.2	< 2	
Fc1cc(-c2cc(-c3ccc4c(c3)OCO4)n[nH]2)ccn1 [Compound 12, 4-[3-(1,3-benzodioxol-5-yl)-1H-pyrazol-5-yl]-2-fluoropyridine]	3.4		9	47 nM and 42 nM
